Laboratory results as given in patent publication US11297838B2, “Pesticidal compositions and methods” (CORTEVA AGRISCIENCE LLC, priority 2018, dated 2022).

Tests used:
Format in all cases: in vivo
[1] = test system: Cabbage Looper (Trichloplusia ni, TRIPNI); assay: Insecticidal test for cabbage looper (CL), 128-well diet tray assay; details: Trichoplusia ni, 168 h; 50 μg/cm^2 on artificial diet, second instar larvae, five to seven days, 25° C.; read-out: CL rating, % Control (or Mortality)
Protocol: Insecticidal Test for Cabbage Looper (Trichloplusia ni, TRIPNI) (“CL”)
Bioassays on cabbage looper (CL; Trichloplusia ni: Lepidoptera) are conducted using a 128-well diet tray assay. One to five second instar CL larvae are placed in each well (3 mL) of the diet tray that had been previously filled with 1 mL of artificial diet to which 50 μg/cm^2 of the test compound (dissolved in 50 μL of 90:10 acetone-water mixture) had been applied (to each of eight wells) and then allowed to dry. Trays are covered with a clear self-adhesive cover, vented to allow gas exchange, and held at 25° C., 14:10 light-dark for five to seven days. Percent mortality is recorded for the larvae in each well; activity in the eight wells is then averaged. In the reporting of the results, the “BAW & CL Rating Table” was used.

[2] = test system: Beet Armyworm (Spodoptera exigua, LAPHEG); assay: Insecticidal test for beet armyworm (BAW), 128-well diet tray assay; details: 168 h, 50 μg/cm^2 on artificial diet, second instar larvae, five to seven days, 25° C., read-out: BAW rating, % Control (or Mortality)
Protocol: Insecticidal Test for Beet Armyworm (Spodoptera exigua, LAPHEG) (“BAW”)
Bioassays on beet armyworm (BAW; Spodoptera exigua: Lepidoptera) are conducted using a 128-well diet tray assay. One to five second instar BAW larvae are placed in each well (3 mL) of the diet tray that had been previously filled with 1 mL of artificial diet to which 50 μg/cm^2 of the test compound (dissolved in 50 μL of 90:10 acetone-water mixture) had been applied (to each of eight wells) and then allowed to dry. Trays are covered with a clear self-adhesive cover, vented to allow gas exchange, and held at 25° C., 14:10 light-dark for five to seven days. Percent mortality is recorded for the larvae in each well; activity in the eight wells is then averaged. In the reporting of the results, the “BAW & CL Rating Table” was used.

[3] = test system: Yellow Fever Mosquito (Aedes aegypti, AEDSAE); details: about 1 day-old larvae, 4000 ppm master solution diluted, 3 days, room temperature
Protocol: Insecticidal Test for Yellow Fever Mosquito (Aedes aegypti, AEDSAE) (“YFM”)
Master plates containing 400 μg of a molecule dissolved in 100 μL of dimethyl sulfoxide (DMSO) (equivalent to a 4000 ppm solution) are used. A master plate of assembled molecules contains 15 μL per well. To this plate, 135 μL of a 90:10 water/acetone mixture is added to each well. A robot (Biomek® NXP Laboratory Automation Workstation) is programmed to dispense 15 μL aspirations from the master plate into an empty 96-well shallow plate (“daughter” plate). There are 6 reps (“daughter” plates) created per master. The created “daughter” plates are then immediately infested with YFM larvae.
The day before plates are to be treated, mosquito eggs are placed in Millipore water containing liver powder to begin hatching (4 g. into 400 mL). After the “daughter” plates are created using the robot, they are infested with 220 μL of the liver powder/larval mosquito mixture (about 1 day-old larvae). After plates are infested with mosquito larvae, a non-evaporative lid is used to cover the plate to reduce drying. Plates are held at room temperature for 3 days prior to grading. After 3 days, each well is observed and scored based on mortality. In the reporting of the results, the “YFM Rating Table” was used.

SMILES: Cc1ccc(C(F)(F)F)c(N2C(=O)CS/C2=N\C(=O)OCCc2ccc(-c3ncn(-c4ccc(OC(F)(F)F)cc4)n3)cc2)c1 [A14, 4-(1-(4-(Trifluoromethoxy)phenyl)-1H-1,2,4-triazol-3-yl)phenethyl (Z)-(3-(5-methyl-2-(trifluoromethyl)phenyl)-4-oxothiazolidin-2-ylidene)carbamate]
- mortality at 50 µg/cm2 [1]: 50 to 100%
- mortality at 50 µg/cm2 [2]: 50 to 100%
- YFM rating, % Control (or Mortality) [3]: A (80-100)

SMILES: CCOc1ccc(C)cc1N1C(=O)CS/C1=N\C(=O)OCCc1ccc(-c2ncn(-c3ccc(OC(F)(F)F)cc3)n2)cc1 [A16, 4-(1-(4-(Trifluoromethoxy)phenyl)-1H-1,2,4-triazol-3-yl)phenethyl (Z)-(3-(2-ethoxy-5-methylphenyl)-4-oxothiazolidin-2-ylidene)carbamate]
- mortality at 50 µg/cm2 [1]: 50 to 100%
- mortality at 50 µg/cm2 [2]: 50 to 100%
- YFM rating, % Control (or Mortality) [3]: A (80-100)

SMILES: Cc1cc(Cl)c(N2C(=O)CS/C2=N\C(=O)OCCc2ccc(-c3ncn(-c4ccc(OC(F)(F)F)cc4)n3)cc2)cc1C [A18, 4-(1-(4-(Trifluoromethoxy)phenyl)-1H-1,2,4-triazol-3-yl)phenethyl (Z)-(3-(2-chloro-4,5-dimethylphenyl)-4-oxothiazolidin-2-ylidene)carbamate]
- mortality at 50 µg/cm2 [1]: 0%
- mortality at 50 µg/cm2 [2]: 0%
- YFM rating, % Control (or Mortality) [3]: D (No activity noticed in this bioassay)

SMILES: O=C(/N=C1\SCC(=O)N1c1ccccc1CCC1CC1)OCCc1ccc(-c2ncn(-c3ccc(OC(F)(F)F)cc3)n2)cc1 [A7, 4-(1-(4-(Trifluoromethoxy)phenyl)-1H-1,2,4-triazol-3-yl)phenethyl (Z)-(3-(2-(2-cyclopropylethyl)phenyl)-4-oxothiazolidin-2-ylidene)carbamate]
- mortality at 50 µg/cm2 [1]: 50 to 100%
- mortality at 50 µg/cm2 [2]: 0 to 50%
- YFM rating, % Control (or Mortality) [3]: A (80-100)

SMILES: Cc1ccc(F)c(N2C(=O)CS/C2=N\C(=O)OCCc2ccc(-c3ncn(-c4ccc(OC(F)(F)F)cc4)n3)cc2)c1 [A11, 4-(1-(4-(Trifluoromethoxy)phenyl)-1H-1,2,4-triazol-3-yl)phenethyl (Z)-(3-(2-fluoro-5-methylphenyl)-4-oxothiazolidin-2-ylidene)carbamate]
- mortality at 50 µg/cm2 [1]: 50 to 100%
- mortality at 50 µg/cm2 [2]: 0 to 50%
- YFM rating, % Control (or Mortality) [3]: A (80-100)

SMILES: Cc1ccc(C(C)C)c(N2C(=O)CS/C2=N\C(=O)OC(C)Cc2ccc(-c3ncn(-c4ccc(OC(F)(F)F)cc4)n3)cc2)c1 (stereo not shown) [A19, 1-(4-(1-(4-(Trifluoromethoxy)phenyl)-1H-1,2,4-triazol-3-yl)phenyl)propan-2-yl (Z)-(3-(2-isopropyl-5-methylphenyl)-4-oxothiazolidin-2-ylidene)carbamate]
- mortality at 50 µg/cm2 [1]: 50 to 100%
- mortality at 50 µg/cm2 [2]: 50 to 100%
- YFM rating, % Control (or Mortality) [3]: B (More than 0-Less than 80)

SMILES: COc1ccc(C)cc1N1C(=O)CS/C1=N\C(=O)OCCc1ccc(-c2ncn(-c3ccc(OC(F)(F)F)cc3)n2)cc1 [A13, 4-(1-(4-(Trifluoromethoxy)phenyl)-1H-1,2,4-triazol-3-yl)phenethyl (Z)-(3-(2-methoxy-5-methylphenyl)-4-oxothiazolidin-2-ylidene)carbamate]
- mortality at 50 µg/cm2 [1]: 50 to 100%
- mortality at 50 µg/cm2 [2]: 50 to 100%
- YFM rating, % Control (or Mortality) [3]: A (80-100)

SMILES: Cc1cc(N2C(=O)CS/C2=N\C(=O)OCCc2ccc(-c3ncn(-c4ccc(OC(F)(F)F)cc4)n3)cc2)c(C(C)C)cc1F [A17, 4-(1-(4-(Trifluoromethoxy)phenyl)-1H-1,2,4-triazol-3-yl)phenethyl (Z)-(3-(4-fluoro-2-isopropyl-5-methylphenyl)-4-oxothiazolidin-2-ylidene)carbamate]
- mortality at 50 µg/cm2 [1]: 50 to 100%
- mortality at 50 µg/cm2 [2]: 50 to 100%
- YFM rating, % Control (or Mortality) [3]: A (80-100)

SMILES: CCOc1ccccc1N1C(=O)CS/C1=N\C(=O)OCCc1ccc(-c2ncn(-c3ccc(OC(F)(F)F)cc3)n2)cc1 [A5, 4-(1-(4-(Trifluoromethoxy)phenyl)-1H-1,2,4-triazol-3-yl)phenethyl (Z)-(3-(2-ethoxyphenyl)-4-oxothiazolidin-2-ylidene)carbamate]
- mortality at 50 µg/cm2 [1]: 50 to 100%
- mortality at 50 µg/cm2 [2]: 0 to 50%
- YFM rating, % Control (or Mortality) [3]: A (80-100)

SMILES: O=C(/N=C1\SCC(=O)N1c1ccccc1/C=C/C(F)(F)F)OCCc1ccc(-c2ncn(-c3ccc(OC(F)(F)F)cc3)n2)cc1 [A9, 4-(1-(4-(Trifluoromethoxy)phenyl)-1H-1,2,4-triazol-3-yl)phenethyl ((Z)-4-oxo-3-(2-((E)-3,3,3-trifluoroprop-1-en-1-yl)phenyl)thiazolidin-2-ylidene)carbamate]
- mortality at 50 µg/cm2 [1]: 50 to 100%
- mortality at 50 µg/cm2 [2]: 50 to 100%
- YFM rating, % Control (or Mortality) [3]: A (80-100)

SMILES: CCc1cccc(C)c1N1C(=O)CS/C1=N\C(=O)OC(C)Cc1ccc(-c2ncn(-c3ccc(OC(F)(F)F)cc3)n2)cc1 (stereo not shown) [A52, 1-(4-(1-(4-(Trifluoromethoxy)phenyl)-1H-1,2,4-triazol-3-yl)phenyl)propan-2-yl (Z)-(3-(2-ethyl-6-methylphenyl)-4-oxothiazolidin-2-ylidene)carbamate]
- mortality at 50 µg/cm2 [1]: 50 to 100%
- mortality at 50 µg/cm2 [2]: 50 to 100%

SMILES: Cc1ccc(C(C)C)c(N2C(=O)CS/C2=N\C(=O)OCC(Cl)c2ccc(-c3ncn(-c4ccc(OC(F)(F)F)cc4)n3)cc2)c1 (stereo not shown) [A46, 2-Chloro-2-(4-(1-(4-(trifluoromethoxy)phenyl)-1H-1,2,4-triazol-3-yl)phenyl)ethyl (Z)-(3-(2-isopropyl-5-methylphenyl)-4-oxothiazolidin-2-ylidene)carbamate]
- mortality at 50 µg/cm2 [1]: 50 to 100%
- mortality at 50 µg/cm2 [2]: 50 to 100%

SMILES: Cc1ccc(C(C)C)c(N2C(=O)CS/C2=N\C(=O)OCC(F)c2ccc(-c3ncn(-c4ccc(OC(F)(F)F)cc4)n3)cc2)c1 (stereo not shown) [A20, 2-fluoro-2-(4-(1-(4-(trifluoromethoxy)phenyl)-1H-1,2,4-triazol-3-yl)phenyl)ethyl (Z)-(3-(2-isopropyl-5-methylphenyl)-4-oxothiazolidin-2-ylidene)carbamate]
- mortality at 50 µg/cm2 [1]: 50 to 100%
- mortality at 50 µg/cm2 [2]: 50 to 100%

SMILES: CC(C)c1ccc(Cl)cc1N1C(=O)CS/C1=N\C(=O)OCCc1ccc(-c2ncn(-c3ccc(OC(F)(F)C(F)(F)F)cc3)n2)cc1 [A43, 4-(1-(4-(Perfluoroethoxy)phenyl)-1H-1,2,4-triazol-3-yl)phenethyl (Z)-(3-(5-chloro-2-isopropylphenyl)-4-oxothiazolidin-2-ylidene)carbamate]
- mortality at 50 µg/cm2 [1]: 0%
- mortality at 50 µg/cm2 [2]: 50 to 100%

SMILES: COCc1ccccc1N1C(=O)CS/C1=N\C(=O)OCCc1ccc(-c2ncn(-c3ccc(OC(F)(F)F)cc3)n2)cc1 [A27, 4-(1-(4-(trifluoromethoxy)phenyl)-1H-1,2,4-triazol-3-yl)phenethyl (Z)-(3-(2-(methoxymethyl)phenyl)-4-oxothiazolidin-2-ylidene)carbamate]
- mortality at 50 µg/cm2 [1]: 50 to 100%
- mortality at 50 µg/cm2 [2]: 50 to 100%

SMILES: CC(C)c1ccccc1N1C(=O)CS/C1=N\C(=O)OCC(F)c1ccc(-c2ncn(-c3ccc(OC(F)(F)C(F)(F)F)cc3)n2)cc1 (stereo not shown) [A24, 2-Fluoro-2-(4-(1-(4-(perfluoroethoxy)phenyl)-1H-1,2,4-triazol-3-yl)phenyl)ethyl (Z)-(3-(2-isopropylphenyl)-4-oxothiazolidin-2-ylidene)carbamate]
- mortality at 50 µg/cm2 [1]: 50 to 100%
- mortality at 50 µg/cm2 [2]: 50 to 100%

SMILES: O=C(/N=C1\SCC(=O)N1c1cc(Cl)ccc1OCC(F)(F)F)OCCc1ccc(-c2ncn(-c3ccc(OC(F)(F)F)cc3)n2)cc1 [A30, 4-(1-(4-(Trifluoromethoxy)phenyl)-1H-1,2,4-triazol-3-yl)phenethyl (Z)-(3-(5-chloro-2-(2,2,2-trifluoroethoxy)phenyl)-4-oxothiazolidin-2-ylidene)carbamate]
- mortality at 50 µg/cm2 [1]: 50 to 100%
- mortality at 50 µg/cm2 [2]: 50 to 100%

SMILES: CCc1cccc(C)c1N1C(=O)CS/C1=N\C(=O)OCC(F)c1ccc(-c2ncn(-c3ccc(OC(F)(F)F)cc3)n2)cc1 (stereo not shown) [A42, 2-Fluoro-2-(4-(1-(4-(trifluoromethoxy)phenyl)-1H-1,2,4-triazol-3-yl)phenyl)ethyl (Z)-(3-(2-ethyl-6-methylphenyl)-4-oxothiazolidin-2-ylidene)carbamate]
- mortality at 50 µg/cm2 [1]: 50 to 100%
- mortality at 50 µg/cm2 [2]: 0 to 50%
